Results as given in the NIST ThermoML archive (doi:10.1016/j.jct.2012.11.020).
Numbers after ± are expanded uncertainties.

Experiment: xn = mol fraction of the nth substance listed
Conditions: 100 kPa, Liquid; for electrical conductivity: Alternating current cell with electrodes; for viscosity: Cone and plate viscometry; for mass density: Vibrating tube method

C1CC[NH2+]C1.O=[N+]([O-])[O-] [pyrrolidinium nitrate] + CC1COC(=O)O1
Conditions | electrical conductivity [S/m] | mass density [kg/m3] | viscosity [mPa·s]
258.15 K, x1 = 0.3 | 0.387 ± 0.031 | – | –
260.15 K, x1 = 0.1 | 0.142 ± 0.011 | – | –
260.15 K, x1 = 0.22 | 0.315 ± 0.025 | – | –
262.15 K, x1 = 0.5 | 0.673 ± 0.054 | – | –
263.15 K, x1 = 0.3 | 0.481 ± 0.038 | – | –
266.45 K, x1 = 0.22 | 0.376 ± 0.03 | – | –
268.15 K, x1 = 0.1 | 0.207 ± 0.017 | – | –
268.15 K, x1 = 0.3 | 0.585 ± 0.047 | – | –
268.15 K, x1 = 0.5 | 0.91 ± 0.073 | – | –
270.15 K, x1 = 0.8 | 0.0803 ± 0.0064 | – | –
273.15 K, x1 = 0.1 | 0.243 ± 0.019 | – | –
273.15 K, x1 = 0.22 | 0.446 ± 0.036 | – | –
273.15 K, x1 = 0.3 | 0.694 ± 0.056 | – | –
273.15 K, x1 = 0.5 | 1.1 ± 0.088 | – | –
273.15 K, x1 = 0.8 | 0.118 ± 0.009 | – | –
278.15 K, x1 = 0.1 | 0.281 ± 0.022 | – | –
278.15 K, x1 = 0.22 | 0.505 ± 0.04 | – | –
278.15 K, x1 = 0.3 | 0.807 ± 0.065 | – | –
278.15 K, x1 = 0.5 | 1.19 ± 0.095 | – | –
278.15 K, x1 = 0.8 | 0.206 ± 0.017 | – | –
283.15 K, x1 = 0.1 | 0.322 ± 0.026 | 1221 ± 2.4 | 5.97
283.15 K, x1 = 0.22 | 0.562 ± 0.045 | 1225.2 ± 2.5 | 7.55
283.15 K, x1 = 0.3 | 0.92 ± 0.074 | 1227.5 ± 2.5 | 9.98
283.15 K, x1 = 0.4 | – | 1229.8 ± 2.5 | 14.1
283.15 K, x1 = 0.5 | 1.49 ± 0.12 | 1231.5 ± 2.5 | 18.85
283.15 K, x1 = 0.62 | – | 1233 ± 2.5 | 23.36
283.15 K, x1 = 0.7 | – | 1233.3 ± 2.6 | 28.76
283.15 K, x1 = 0.8 | 0.352 ± 0.028 | 1234 ± 2.6 | 35.56
283.15 K, x1 = 1 | – | 1235 ± 2.8 | 58.87
284.15 K, x1 = 1 | 2.93 ± 0.23 | – | –
288.15 K, x1 = 0.1 | 0.362 ± 0.029 | – | –
288.15 K, x1 = 0.22 | 0.606 ± 0.048 | – | –
288.15 K, x1 = 0.3 | 1.04 ± 0.083 | – | –
288.15 K, x1 = 0.5 | 1.7 ± 0.14 | – | –
288.15 K, x1 = 0.8 | 0.644 ± 0.052 | – | –
293.15 K, x1 = 0.1 | 0.405 ± 0.032 | 1211 ± 2.4 | 4.71
293.15 K, x1 = 0.22 | 0.702 ± 0.056 | 1215.8 ± 2.4 | 5.73
293.15 K, x1 = 0.3 | 1.17 ± 0.093 | 1218.5 ± 2.4 | 7.37
293.15 K, x1 = 0.4 | – | 1221.2 ± 2.5 | 10.17
293.15 K, x1 = 0.5 | 1.91 ± 0.15 | 1223.1 ± 2.5 | 13.06
293.15 K, x1 = 0.62 | – | 1225 ± 2.5 | 17.16
293.15 K, x1 = 0.7 | – | 1225.6 ± 2.5 | 20.39
293.15 K, x1 = 0.8 | 1.44 ± 0.12 | 1226.5 ± 2.6 | 24.65
293.15 K, x1 = 1 | 3.71 ± 0.3 | 1228 ± 2.7 | 40.29
298.15 K, x1 = 0.1 | 0.449 ± 0.036 | – | –
298.15 K, x1 = 0.22 | 0.745 ± 0.06 | – | –
298.15 K, x1 = 0.3 | 1.3 ± 0.1 | – | –
298.15 K, x1 = 0.5 | 2.13 ± 0.17 | – | –
298.15 K, x1 = 0.8 | 2.49 ± 0.2 | – | –
298.15 K, x1 = 1 | 4.22 ± 0.34 | – | –
303.15 K, x1 = 0.1 | 0.497 ± 0.04 | 1200.9 ± 2.4 | 3.6
303.15 K, x1 = 0.22 | 0.832 ± 0.067 | 1206.4 ± 2.4 | 4.5
303.15 K, x1 = 0.3 | 1.44 ± 0.12 | 1209.5 ± 2.4 | 5.71
303.15 K, x1 = 0.4 | – | 1212.6 ± 2.4 | 7.73
303.15 K, x1 = 0.5 | 2.37 ± 0.19 | 1214.9 ± 2.5 | 9.78
303.15 K, x1 = 0.62 | – | 1216.9 ± 2.5 | 12.55
303.15 K, x1 = 0.7 | – | 1218 ± 2.5 | 15.17
303.15 K, x1 = 0.8 | 2.8 ± 0.22 | 1218.9 ± 2.6 | 18.53
303.15 K, x1 = 1 | – | 1220.4 ± 2.7 | 28.81
304.15 K, x1 = 1 | 4.94 ± 0.4 | – | –
308.15 K, x1 = 0.1 | 0.546 ± 0.044 | – | –
308.15 K, x1 = 0.22 | 0.93 ± 0.074 | – | –
308.15 K, x1 = 0.3 | 1.59 ± 0.13 | – | –
308.15 K, x1 = 0.5 | 2.62 ± 0.21 | – | –
308.15 K, x1 = 0.8 | 3.13 ± 0.25 | – | –
313.15 K, x1 = 0.1 | 0.597 ± 0.048 | 1191 ± 2.4 | 2.66
313.15 K, x1 = 0.22 | 1.03 ± 0.082 | 1197 ± 2.4 | 3.64
313.15 K, x1 = 0.3 | 1.74 ± 0.14 | 1200.6 ± 2.4 | 4.57
313.15 K, x1 = 0.4 | – | 1204.1 ± 2.4 | 6.07
313.15 K, x1 = 0.5 | 2.88 ± 0.23 | 1206.7 ± 2.4 | 7.59
313.15 K, x1 = 0.62 | – | 1209.1 ± 2.5 | 9.6
313.15 K, x1 = 0.7 | – | 1210.4 ± 2.5 | 11.72
313.15 K, x1 = 0.8 | 3.46 ± 0.28 | 1212 ± 2.6 | 14.49
313.15 K, x1 = 1 | 5.97 ± 0.48 | 1213.1 ± 2.7 | 20.91
318.15 K, x1 = 0.1 | 0.65 ± 0.052 | – | –
318.15 K, x1 = 0.22 | 1.13 ± 0.09 | – | –
318.15 K, x1 = 0.3 | 1.9 ± 0.15 | – | –
318.15 K, x1 = 0.5 | 3.15 ± 0.25 | – | –
318.15 K, x1 = 0.8 | 3.81 ± 0.3 | – | –
323.15 K, x1 = 0.1 | 0.704 ± 0.056 | 1181.1 ± 2.4 | 2.24
323.15 K, x1 = 0.22 | 1.23 ± 0.098 | 1187.7 ± 2.4 | 3.04
323.15 K, x1 = 0.3 | 2.06 ± 0.17 | 1191.7 ± 2.4 | 3.75
323.15 K, x1 = 0.4 | – | 1195.7 ± 2.4 | 4.91
323.15 K, x1 = 0.5 | 3.43 ± 0.27 | 1198.6 ± 2.4 | 6.07
323.15 K, x1 = 0.62 | – | 1201.4 ± 2.5 | 7.57
323.15 K, x1 = 0.7 | – | 1203 ± 2.5 | 9.33
323.15 K, x1 = 0.8 | 4.18 ± 0.33 | 1204 ± 2.5 | 10.97
323.15 K, x1 = 1 | 7.17 ± 0.57 | 1205.5 ± 2.7 | 16.7
328.15 K, x1 = 0.1 | 0.759 ± 0.061 | – | –
328.15 K, x1 = 0.22 | 1.33 ± 0.11 | – | –
328.15 K, x1 = 0.3 | 2.22 ± 0.18 | – | –
328.15 K, x1 = 0.5 | 3.72 ± 0.3 | – | –
328.15 K, x1 = 0.8 | 4.57 ± 0.37 | – | –
333.15 K, x1 = 0.1 | 0.816 ± 0.065 | 1171.2 ± 2.3 | 1.91
333.15 K, x1 = 0.22 | 1.44 ± 0.12 | 1178.5 ± 2.4 | 2.57
333.15 K, x1 = 0.3 | 2.39 ± 0.19 | 1182.9 ± 2.4 | 3.14
333.15 K, x1 = 0.4 | – | 1187.4 ± 2.4 | 4.06
333.15 K, x1 = 0.5 | 4.01 ± 0.32 | 1190.6 ± 2.4 | 4.97
333.15 K, x1 = 0.62 | – | 1193.8 ± 2.4 | 6.15
333.15 K, x1 = 0.7 | – | 1195.6 ± 2.5 | 7.61
333.15 K, x1 = 0.8 | 4.97 ± 0.4 | 1196.5 ± 2.5 | 8.83
333.15 K, x1 = 1 | 8.51 ± 0.68 | 1197.2 ± 2.7 | 13.3
338.15 K, x1 = 0.1 | 0.874 ± 0.07 | – | –
338.15 K, x1 = 0.22 | 1.54 ± 0.12 | – | –
338.15 K, x1 = 0.3 | 2.56 ± 0.2 | – | –
338.15 K, x1 = 0.5 | 4.32 ± 0.35 | – | –
338.15 K, x1 = 0.8 | 5.38 ± 0.43 | – | –
343.15 K, x1 = 0.1 | 0.932 ± 0.075 | 1161.4 ± 2.3 | 1.65
343.15 K, x1 = 0.22 | 1.66 ± 0.13 | 1169.3 ± 2.3 | 2.2
343.15 K, x1 = 0.3 | 2.73 ± 0.22 | 1174.2 ± 2.4 | 2.68
343.15 K, x1 = 0.4 | – | 1179.1 ± 2.4 | 3.44
343.15 K, x1 = 0.5 | 4.62 ± 0.37 | 1182.7 ± 2.4 | 4.16
343.15 K, x1 = 0.62 | – | 1186.2 ± 2.4 | 5.19
343.15 K, x1 = 0.7 | – | 1188 ± 2.5 | 6.42
343.15 K, x1 = 0.8 | 5.8 ± 0.46 | 1189.5 ± 2.5 | 7.91
343.15 K, x1 = 1 | – | 1190.2 ± 2.6 | 11.17
344.95 K, x1 = 1 | 9.3 ± 0.74 | – | –
348.15 K, x1 = 0.1 | 0.992 ± 0.079 | – | –
348.15 K, x1 = 0.22 | 1.77 ± 0.14 | – | –
348.15 K, x1 = 0.3 | 2.91 ± 0.23 | – | –
348.15 K, x1 = 0.5 | 4.93 ± 0.39 | – | –
348.15 K, x1 = 0.8 | 6.24 ± 0.5 | – | –
353.15 K, x1 = 0.1 | 1.05 ± 0.084 | 1151.6 ± 2.3 | 1.45
353.15 K, x1 = 0.22 | 1.88 ± 0.15 | 1160.1 ± 2.3 | 1.91
353.15 K, x1 = 0.3 | 3.09 ± 0.25 | 1165.4 ± 2.3 | 2.32
353.15 K, x1 = 0.4 | – | 1170.8 ± 2.4 | 2.95
353.15 K, x1 = 0.5 | 5.24 ± 0.42 | 1174.9 ± 2.4 | 3.54
353.15 K, x1 = 0.62 | – | 1178.7 ± 2.4 | 4.3
353.15 K, x1 = 0.7 | – | 1180 ± 2.4 | 5.2
353.15 K, x1 = 0.8 | 6.68 ± 0.53 | 1181.5 ± 2.5 | 6.35
353.15 K, x1 = 1 | – | 1182 ± 2.6 | 9.28
353.65 K, x1 = 1 | 10.5 ± 0.84 | – | –
358.15 K, x1 = 0.1 | 1.11 ± 0.089 | – | –
358.15 K, x1 = 0.22 | 1.99 ± 0.16 | – | –
358.15 K, x1 = 0.3 | 3.19 ± 0.26 | – | –
358.15 K, x1 = 0.5 | 5.55 ± 0.44 | – | –
358.15 K, x1 = 0.8 | 7.12 ± 0.57 | – | –
362.15 K, x1 = 0.3 | 3.35 ± 0.27 | – | –
363.15 K, x1 = 0.5 | 5.83 ± 0.47 | – | –
363.15 K, x1 = 0.8 | 7.57 ± 0.61 | – | –
